The test system of assay [1] is clinically isolated P. aeruginosa strains. The experiment in a line: checkerboard method, gemifloxacin or ciprofloxacin with ceftazidime, 6 clinical isolates (Example 5). Format: cell-based, Pseudomonas aeruginosa. As to conditions: for FICA: FIC of gemifloxacin; for Cgemifloxacin MIC: in combination with ceftazidime; for MIC: Pseudomonas aeruginosa, drug alone, read-out: gemifloxacin MIC. As for the experimental part: Minimal inhibitory concentrations (MICs) for each separate drug were determined. For wells along the growth-no growth interface, synergy was determined by calculating the Fractional Inhibitory Concentration (FIC) index. The Fractional Inhibitory Concentration (FIC) indices were calculated using the following formula: FICindex=FICA+FICB=[A]/MICA+[B]/MICB • Wherein: • FICA(or B), is the FIC of drug A (or B) MICA (or B) is the MIC of the organism to drug A (or B) • A (or B) is concentration of drug A (or B) that is the lowest inhibitory concentration
The FIC indices were interpreted using the following criteria: • ≦0.5=Synergy • >0.5–1.0=Additive • >1.0–4.0=Indifference • >4.0=Antagonism
The test organisms were clinical isolates collected in Korea. Organisms were frozen at −70 C. prior to testing. […] Gemifloxacin or ciprofloxacin solution was dispensed alone in the first row and combined with ceftazidime in the remaining rows. Ceftazidime as also dispensed alone in the first row in the first column. Test strains of P. aeruginosa were grown for 18 h in Mueller-Hinton broth, and then these overnight cultures were diluted with the same fresh medium to the density of approximately 10^7 CFU/mL. The bacterial concentrations were determined by measuring optical density or turbidity of the suspension and were verified by standard colony counts on antibiotic-free agar plates. A diluted bacterial solution was applied to 96-well plates containing serially diluted antimicrobial agents to yield 5×10^5 CFU/mL. Plates were incubated at 35 C for 18 hours.
MICs for each separate drug were determined, and for wells along the growth-no growth interface, synergy was determined by calculating FIC Indices as in Example 4. FIC Indices were calculated and interpreted as in Example 4.

For assay [2], the system named is E. coli ATCC 25922. Nature of the assay: checkerboard titration, gemifloxacin and cefaclor (MIC, FIC). Format: cell-based, Escherichia coli. As for the experimental part:
(§1) Checkerboard microtitre broth dilution plates were prepared using the Hamilton MicroLab AT Plus system (Reno, Nev.). Two-fold serial dilutions (50 μl) of cefotaxime were made in columns 1 through 11 of a microtitre plate. Two-fold serial dilutions of gemifloxacin were prepared manually and the MicroLab AT Plus was used to dispense 25 μl of gemifloxacin at each concentration into rows A through G of the microtitre plate. The concentration range tested varied for each drug/organism combination to encompass the MIC endpoints of the individual components. Column 12 contained two fold serial dilutions of gemifloxacin only, and row H contained two fold serial dilutions of cefotaxie only. The last well (H) in column 12 was used as a positive growth control well, containing only medium and test isolate.
(§2) The bacteria were diluted to a 0.5 McFarland standard and then further diluted 1/50. Each well was inoculated with 25 μl of the isolate to give a final inoculum density of approximately 5×10^5 cfu/ml. The MicroLab AT Plus 2 was used to add the inoculum to the microtitre plates. After inoculation, the plates were covered with a 96 well microtitre plate lid and incubated at 35° C. in ambient air for 20–24 hours. A 10 μl aliquot of the inoculum was plated on trypticase soy agar containing 5% sheep blood to determine the purity of the final test inoculum.
(§3) Following incubation, a microtitre mirror reader (Cooke Instruments Ltd., England) was used to assist in determining the microdilution MIC endpoints. The MIC was determined as the lowest concentration of compound that inhibited visible growth of the organism.
(§4) The Fractional Inhibitory Concentrations (FICs) were calculated using the following formula: (A)/(MICA)+(B)/(MICB)=FICA+FICB=FICIndex wherein: • A is the MIC of drug A in the presence of drug B • B is the MIC of drug B in the presence of drug A • MIC A is the MIC of the organism to drug A alone • MIC B is the MIC of the organism to drug B alone • FIC A is the fractional inhibitory concentration of drug A • FIC B is the fractional inhibitory concentration of drug B
(§5) The FIC indices were interpreted using the following criteria: • ≦0.5=Synergy • >0.5–1=Additive • >1–2=Indifference • >2=Antagonism
3) E. coli ATCC 25922 was obtained from the SmithKline Beecham Anti-Infectives Research Culture Collection and stored at −80° C. in 10% glycerol. Before testing, the isolate was passaged onto agar plates (trypticase soy agar containing 5% sheeps blood) from the frozen stock for two consecutive days. […]
The combined effect of gemifloxacin and cefaclor was investigated in E. coli ATCC 25922 by using the checkerboard titration method described in Example 1. FIC Indices were calculated and interpreted as in Example 1.

In assay [3] the test system is E. faecalis ATCC 29212. The experiment in a line: checkerboard titration, gemifloxacin and cefotaxime (MIC, FIC). Format: cell-based, Enterococcus faecalis. As for the experimental part:
1) The combined effect of gemifloxacin and cefotaxime was investigated in E. faecalis by using a checkerboard titration method. Evaluation for synergistic activity was carried out by calculation of fractional inhibitory concentrations (FICs) according to the method of Eliopoulos et al (1996, Antimicrobial Combinations, Antibiotics in Laboratory Medicine, Victor Lorian, 4th Edition, pp 337–338, Baltimore, Md., Williams and Wilkins).
E. faecalis ATCC 29212 was obtained from the SmithKline Beecham Anti-Infectives Research Culture Collection and stored at −80° C. in 10% glycerol. Before testing, the isolate was passaged onto agar plates (trypticase soy agar containing 5% sheeps blood) from the frozen stock for two consecutive days. Cation adjusted Mueller Hinton broth (BBL, Cockeysville, Md.) was used for the isolate.
as §1, §2, §3, §4, §5

Setting [4] is: drug alone, no unit in this line (other lines μg/ml).

Here are results for one compound from patent US7169792B2, “Method of treating bacterial infections using gemifloxacin or a salt thereof and a β-lactam antibiotic” (priority 2002, dated 2007).

Like-named read-outs stand apart in the source and are kept apart here.

Regarding `CO/N=C1\CN(c2nc3c(cc2F)c(=O)c(C(=O)O)cn3C2CC2)CC1CN` (racemic) [gemifloxacin, (R,S)-7-(3-aminomethyl-4-methoxyiminopyrrolidin-1-yl)-1-cyclopropyl-6-fluoro-4-oxo-1,4-dihydro-1,8-naphthyridine-3-carboxylic acid], the figures for the FICA in assay [1] (P. aeruginosa 6140), in assay [1] (P. aeruginosa 6168) and in assay [1] (P. aeruginosa P003) were 0.06, 0.13 and 0.06, respectively. In addition, the “Cgemifloxacin MIC” value in assay [1] (P. aeruginosa 6140) is 0.5 µg/mL; in assay [1] (P. aeruginosa 6168), 0.0625 µg/mL; in assay [1] (P. aeruginosa P003), 0.125 µg/mL. Further, the MIC (as a rule, the smallest concentration in the dilution series that meets the test's criterion for growth inhibition) was 8 µg/mL in assay [1] (P. aeruginosa 6140); 0.5 µg/mL in assay [1] (P. aeruginosa 6168); 2 µg/mL in assay [1] (P. aeruginosa P003); 0.002 µg/mL in assay [2] (Escherichia coli, ATCC25922, in presence of cefaclor 1 μg/ml, read-out: gemifloxacin MIC); 0.008 µg/mL in assay [3] (Enterococcus faecalis, ATCC29212, in presence of cefotaxime 64 μg/ml, read-out: gemifloxacin MIC). Further, the “gemifloxacin MIC” value in assay [2] (setting [4]) was determined as 0.008; in assay [3] (setting [4]) it was 0.03; in assay [3] (in presence of cefotaxime 16 μg/ml), 0.008 µg/mL; in assay [3] (in presence of cefotaxime 32 μg/ml), 0.008 µg/mL.
